Results on 4 molecules are retold here after patent publication US9006253B2, “Crystal of 2-(3,4-dichlorobenzyl)-5-methyl-4-oxo-3,4-dihydrothieno[2,3-D]pyrimidine-6-carboxylic acid” (ASKA Pharmaceutical Co., Ltd., priority 2010, dated 2015).

The nature of data set [1]: Solubility in 0.5% aqueous Tween80 solution at 37° C. The data set is classed as physicochemical. The following applies: for time at which near saturation was reached: stirring; for solubility: value of 3 hr. How it is done:
Form I crystal obtained in Example 1, Form II crystal obtained in Example 2 and amorphous compound A obtained in Production Example 1 (each 50 mg) were suspended in 0.5% aqueous Tween80 solution (20 mL), sonicated, aqueous 0.5% Tween80 solution (180 mL) was added and the mixture was stirred at 37° C.
The solubility was measured by HPLC under the same conditions (isocratic method using acetonitrile/5 mmol/L ammonium hydrogen carbonate (pH 8.0) (27:73) for mobile phase) as in Experimental Example 1 at the time points of 0.5 hr, 1 hr, 2 hr, 3 hr, 4 hr, 5 hr, and 6 hr from the start of stirring. As a result, amorphous compound A reached near saturation at about 0.5 hr, Form I crystal reached near saturation at about 1 hr and Form II crystal reached near saturation at about 2 hr. Therefore, the value of 3 hr was taken as the solubility. The results are shown in Table 11 below together with the results of the following Experimental Example 3.

The nature of data set [2]: Photostability test. The data set is classed as physicochemical. To be noted: xenon lamp 18 million Lxs, exposed to light for 8 hr. As for the experimental part: Form I crystal, Form II crystal and amorphous form of compound A were subjected to a photostability test under the following conditions. The results are shown in FIG. 17. light source: xenon lamp 18 million Lxs
conditions: sample (6 mg) was weighed in a transparent sample bottle, and exposed to light for 8 hr.
HPLC conditions: same as in Experimental Example 1

Data set [3] in a line: Thermal stability (decomposition product by HPLC, colour after heating). The data set is classed as physicochemical. To be noted: 6 hr; for amount of the decomposition product (decarboxylation substance of compound A): HPLC. As for the experimental part: Form I crystal obtained in Example 1 and Form II crystal obtained in Example 2 and amorphous compound A obtained in Production Example 1 were heated at 100° C. for 6 hr or 200° C. for 6 hr, and the amount of the decomposition product 2-(3,4-dichlorobenzyl)-5-methyl-4-oxo-3,4-dihydrothieno[2,3-d]pyrimidine (decarboxylation substance of compound A) was measured by HPLC. In the HPLC measurement, the sample was suspended in a mobile phase, dissolved by adding 1 equivalent of aqueous sodium hydroxide and then applied.
HPLC Measurement Condition measuring apparatus: Waters Alliance HPLC system detector: ultraviolet absorption spectrophotometer (measurement wavelength 225 nm) column: XBridge C18 (Waters) column temperature: constant temperature near 30° C. mobile phase A: acetonitrile mobile phase B: 5 mmol/L ammonium hydrogen carbonate (pH 8.0) gradient method of mobile phase A and mobile phase B: mobile phase A 23% (0 to 15 min), mobile phase A 23%→55% (15 to 30 min), mobile phase A 55% (30 to 50 min)

Data set [4] is described as follows: Dog absorption test. In kind it is in vivo. To be noted: 0.3 mg/kg oral administration, average. As for the experimental part:
Form I crystal, Form II crystal and amorphous form of compound A were subjected to a dog absorption test under the following conditions.
sample: except for amorphous form, samples of Form I crystal and Form II crystal sieved to have a particle size of 20 to 63 μm by wet classification (two kinds of sieves and flowing water were used) were used.
Preparation method: 25 mL of water was added to a sample (3 g), and the mixture was gently pulverized in a mortar, classified under pressurization, and draught-dried. As amorphous form, a sample pulverized in agate mortar was used.
method: 9 dogs, 3×3 crossover, 0.3 mg/kg oral administration

Data set [5] in a line: Dissolution rate (disc, Paddle Method). In kind it is physicochemical. To be noted: 100 mg disc (diameter 12 mm), 0.5% aqueous Tween80 solution 900 mL, 37° C., Paddle Method 50 rpm. As for the experimental part: Form I crystal obtained in Example 1, Form II crystal obtained in Example 2 and amorphous compound A obtained in Production Example 1 (each 100 mg) were compression molded by a tableting machine for IR measurement having a metal mold pre-treated with magnesium stearate, and formed into discs (diameter 12 mm). Each disc was added to 0.5% aqueous Tween80 solution (900 mL, 37° C.), the concentration was measured every 10 minutes up to 1 hr, and every 1 hour after 1 hr up to 3 hr, by HPLC under the same conditions as in Experimental Example 1 (isocratic method using acetonitrile/5 mmol/L ammonium hydrogen carbonate (pH 8.0) (27:73) for mobile phase) while maintaining the temperature at 37° C. according to the dissolution test apparatus Paddle Method (50 rpm), and each dissolution rate was calculated. The results are shown in Table 11 below together with the results of the above-mentioned Experimental Example 2.

The target of data set [6] is PDE9 (Homo sapiens, UniProt O76083). To be noted: as described in WO 2006/135080; cited from earlier work.
In data set [7] the target is PDE5 (Homo sapiens, UniProt O76074). The following applies: as described in WO 2006/135080; cited from earlier work.

Values after ≈ are worked out from the molar mass of the structure shown. Read-outs that look alike come from different tables or passages of the source.

Chain of PDE9 (O76083 whole entry): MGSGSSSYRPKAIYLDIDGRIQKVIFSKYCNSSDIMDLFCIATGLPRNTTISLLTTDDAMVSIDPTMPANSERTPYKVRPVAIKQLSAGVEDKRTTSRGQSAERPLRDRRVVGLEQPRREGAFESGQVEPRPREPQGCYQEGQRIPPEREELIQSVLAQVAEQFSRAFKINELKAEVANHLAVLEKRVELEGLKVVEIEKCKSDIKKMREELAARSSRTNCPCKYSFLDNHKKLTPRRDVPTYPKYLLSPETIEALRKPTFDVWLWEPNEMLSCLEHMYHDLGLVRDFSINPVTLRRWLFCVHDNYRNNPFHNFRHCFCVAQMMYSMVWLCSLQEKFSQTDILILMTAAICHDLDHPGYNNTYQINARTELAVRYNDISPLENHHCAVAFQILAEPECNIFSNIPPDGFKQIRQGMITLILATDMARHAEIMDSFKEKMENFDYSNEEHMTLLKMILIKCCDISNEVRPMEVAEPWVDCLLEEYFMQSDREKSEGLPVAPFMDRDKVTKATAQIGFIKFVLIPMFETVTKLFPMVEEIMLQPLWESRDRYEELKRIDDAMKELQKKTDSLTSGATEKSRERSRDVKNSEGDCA

What is called solubility is how much of the substance goes into solution per volume. A low value points to little dissolved substance. As usually defined, the Cmax is the maximum level reached in the sampled fluid or tissue. One may read the MRT as the average time that molecules of a dose stay in the body. A word on the Tmax: it is the time at which the peak concentration occurs. As for `Cc1c(C(=O)O)sc2nc(Cc3ccc(Cl)c(Cl)c3)[nH]c(=O)c12` [Amorphous form, 2-(3,4-dichlorobenzyl)-5-methyl-4-oxo-3,4-dihydrothieno[2,3-d]pyrimidine-6-carboxylic acid], the “time at which near saturation was reached” value (shortened to “time”) in data set [1] (listed as amorphous compound A) is given as “about 0.5 hr”. The solubility in data set [1] was found to be 37 µg/mL (≈ 100 µM). Further, in data set [2] (HPLC), the “impurity after light exposure” value is on record as “exceeding 0.2%”. For the same molecule, in data set [3] (heated at 100° C.), the color of sample result was “slight brown” and the “amount of the decomposition product (decarboxylation substance of compound A)” value (“amount of the decomposition product” below) was 0.006%,. Moreover, in data set [3] (heated at 200° C.), the color of sample entry is recorded as “pale-brown” and the “amount of the decomposition product” value is on record as 3.42%,. In addition, in data set [4], the AUC0-t was determined as 62.9 ng·h/mL, the AUCinf came to 63.4 ng·h/mL, the Cmax is listed as 10.3 ng/mL and the MRT stood at 6.31 h. Moreover, in data set [4], the T1/2 came out at 3.05 h and the Tmax was found to be 3.78 h. In data set [5], this molecule showed a dissolution rate of 0.0052 µg/mL/min.
`Cc1c(C(=O)O)sc2nc(Cc3ccc(Cl)c(Cl)c3)[nH]c(=O)c12` [Compound A, 2-(3,4-dichlorobenzyl)-5-methyl-4-oxo-3,4-dihydrothieno[2,3-d]pyrimidine-6-carboxylic acid]: the PDE9 inhibitory action entry in data set [6] is recorded as “high PDE9 inhibitory action”. For the same molecule, the PDE5 inhibitory action result in data set [7] is “mild PDE5 inhibitory action”.
Usually half-life stands for the time needed for the level to fall by half in the phase considered. Read a low half-life as rapid decline. On to `Cc1c(C(=O)O)sc2nc(Cc3ccc(Cl)c(Cl)c3)[nH]c(=O)c12` [Form I crystal, 2-(3,4-dichlorobenzyl)-5-methyl-4-oxo-3,4-dihydrothieno[2,3-d]pyrimidine-6-carboxylic acid], for which, in data set [1], the “time” value is “about 1 hr” and the solubility is 15 µg/mL (≈ 40.6 µM). Further, the photostability result in data set [2] is recorded as “comparatively stable”. In data set [3] (heated at 100° C.), the color of sample result was “white” and the “amount of the decomposition product” value worked out at 0%. Moreover, in data set [3] (heated at 200° C.), the color of sample entry was “slight brown” and the “amount of the decomposition product” value is 0.05%,. In addition, in data set [4], the AUC0-t was found to be 64.6 ng·h/mL, the AUCinf amounted to 65.6 ng·h/mL and the Cmax turned out to be 9.1 ng/mL. This molecule gave a half-life in data set [4] (in vivo, po, 0.3 mg/kg) of 3.5 h. The MRT in data set [4] (in vivo, po, 0.3 mg/kg, read-out: MRT) was 6.73 h. The Tmax in data set [4] (in vivo, po, 0.3 mg/kg, read-out: Tmax) was determined as 3.06 h. The molecule further yielded a dissolution rate in data set [5] of 0.0017 µg/mL/min.
As for `Cc1c(C(=O)O)sc2nc(Cc3ccc(Cl)c(Cl)c3)[nH]c(=O)c12` [Form II crystal, 2-(3,4-dichlorobenzyl)-5-methyl-4-oxo-3,4-dihydrothieno[2,3-d]pyrimidine-6-carboxylic acid], in data set [1], the “time” value is reported as “about 2 hr” and the solubility came out at 10 µg/mL (≈ 27.1 µM). Also, the photostability entry in data set [2] was “comparatively stable”. Besides, in data set [3] (heated at 100° C.), the color of sample entry is “white” and the “amount of the decomposition product” value was determined as 0%. In addition, in data set [3] (heated at 200° C.), the color of sample entry is reported as “slight brown” and the “amount of the decomposition product” value is given as 0.07%,. In data set [4], this molecule registered an AUC0-t of 24.2 ng·h/mL, an AUCinf of 24.2 ng·h/mL, a Cmax of 3.7 ng/mL and an MRT of 6.89 h. In data set [4], the T1/2 is 3.32 h and the Tmax was 3.44 h. Further, the dissolution rate in data set [5] turned out to be 0.0011 µg/mL/min.
